Data published in patent US20090005745A1, “Transdermal drug delivery systems for delivering anti-inflammatory drugs” (priority 2007, published 2009).
Each block holds one compound with its values, some of them ahead of it.

How the values were obtained:
[1] = Ketoprofen plasma levels achieved by on-knee patch delivery (Example 7); assay type: in vivo, human; conditions: N = 22; for concentration at 2 h / concentration at 4 h / concentration at 6 h / concentration at 8 h / concentration at 10 h / concentration at 12 h / concentration at 14 h / concentration at 16 h / concentration at 18 h / concentration at 20 h / concentration at 24 h / concentration at 28 h / concentration at 32 h / concentration at 36 h / concentration at 42 h / concentration at 48 h: human, plasma, topical, Mean Ketoprofen Plasma Concentration; for concentration at 2 h: applied 12 h
Experimental: In one study session, subjects received one patch above one knee and in the other study session subjects received two patches simultaneously, one above each knee. The patches were applied for 12 hours and venous blood samples were collected during both study session.

[2] = Skin permeability using the Example 1 formulations (Example 6)
Source text: Thus, adjustment of the drug concentration can be carried out in order to achieve a desired therapeutic effect.

Mean Ketoprofen Plasma Concentration produced by unit skin-drug contact area ([1]; Single Patch, time point 2 hrs): 0.078 ng/ml/cm^2 | Mean Ketoprofen Plasma Concentration produced by unit skin-drug contact area ([1]; Single Patch, time point 4 hrs): 0.366 ng/ml/cm^2 | Mean Ketoprofen Plasma Concentration produced by unit skin-drug contact area ([1]; Single Patch, time point 6 hrs): 0.562 ng/ml/cm^2 | Mean Ketoprofen Plasma Concentration produced by unit skin-drug contact area ([1]; Single Patch, time point 8 hrs): 0.675 ng/ml/cm^2 | Mean Ketoprofen Plasma Concentration produced by unit skin-drug contact area ([1]; Single Patch, time point 10 hrs): 0.770 ng/ml/cm^2 | Mean Ketoprofen Plasma Concentration produced by unit skin-drug contact area ([1]; Single Patch, time point 12 hrs): 0.703 ng/ml/cm^2 | Mean Ketoprofen Plasma Concentration produced by unit skin-drug contact area ([1]; Single Patch, time point 14 hrs): 0.464 ng/ml/cm^2 | Mean Ketoprofen Plasma Concentration produced by unit skin-drug contact area ([1]; Single Patch, time point 16 hrs): 0.282 ng/ml/cm^2 | Mean Ketoprofen Plasma Concentration produced by unit skin-drug contact area ([1]; Single Patch, time point 18 hrs): 0.213 ng/ml/cm^2 | Mean Ketoprofen Plasma Concentration produced by unit skin-drug contact area ([1]; Single Patch, time point 20 hrs): 0.160 ng/ml/cm^2 | Mean Ketoprofen Plasma Concentration produced by unit skin-drug contact area ([1]; Single Patch, time point 24 hrs): 0.095 ng/ml/cm^2 | Mean Ketoprofen Plasma Concentration produced by unit skin-drug contact area ([1]; Single Patch, time point 28 hrs): 0.058 ng/ml/cm^2 | Mean Ketoprofen Plasma Concentration produced by unit skin-drug contact area ([1]; Single Patch, time point 32 hrs): 0.035 ng/ml/cm^2 | Mean Ketoprofen Plasma Concentration produced by unit skin-drug contact area ([1]; Single Patch, time point 36 hrs): 0.028 ng/ml/cm^2 | Mean Ketoprofen Plasma Concentration produced by unit skin-drug contact area ([1]; Single Patch, time point 42 hrs): 0.023 ng/ml/cm^2 | Mean Ketoprofen Plasma Concentration produced by unit skin-drug contact area ([1]; Single Patch, time point 48 hrs): 0.019 ng/ml/cm^2 | Mean Ketoprofen Plasma Concentration ([1]; Two Patches Dose-Normalized to one patch, time point 2 hrs): 3.9 ng/mL | Mean Ketoprofen Plasma Concentration ([1]; Two Patches Dose-Normalized to one patch, time point 4 hrs): 44.6 ng/mL | Mean Ketoprofen Plasma Concentration ([1]; Two Patches Dose-Normalized to one patch, time point 48 hrs): 3.1 ng/mL | Mean Ketoprofen Plasma Concentration produced by unit skin-drug contact area ([1]; Two Patches, time point 2 hrs): 0.023 ng/ml/cm^2 | Mean Ketoprofen Plasma Concentration produced by unit skin-drug contact area ([1]; Two Patches, time point 4 hrs): 0.259 ng/ml/cm^2 | Mean Ketoprofen Plasma Concentration produced by unit skin-drug contact area ([1]; Two Patches, time point 6 hrs): 0.512 ng/ml/cm^2 | Mean Ketoprofen Plasma Concentration produced by unit skin-drug contact area ([1]; Two Patches, time point 8 hrs): 0.630 ng/ml/cm^2 | Mean Ketoprofen Plasma Concentration produced by unit skin-drug contact area ([1]; Two Patches, time point 10 hrs): 0.714 ng/ml/cm^2 | Mean Ketoprofen Plasma Concentration produced by unit skin-drug contact area ([1]; Two Patches, time point 12 hrs): 0.665 ng/ml/cm^2 | Mean Ketoprofen Plasma Concentration produced by unit skin-drug contact area ([1]; Two Patches, time point 14 hrs): 0.454 ng/ml/cm^2 | Mean Ketoprofen Plasma Concentration produced by unit skin-drug contact area ([1]; Two Patches, time point 16 hrs): 0.280 ng/ml/cm^2 | Mean Ketoprofen Plasma Concentration produced by unit skin-drug contact area ([1]; Two Patches, time point 18 hrs): 0.199 ng/ml/cm^2 | Mean Ketoprofen Plasma Concentration produced by unit skin-drug contact area ([1]; Two Patches, time point 20 hrs): 0.152 ng/ml/cm^2 | Mean Ketoprofen Plasma Concentration produced by unit skin-drug contact area ([1]; Two Patches, time point 24 hrs): 0.090 ng/ml/cm^2 | Mean Ketoprofen Plasma Concentration produced by unit skin-drug contact area ([1]; Two Patches, time point 28 hrs): 0.054 ng/ml/cm^2 | Mean Ketoprofen Plasma Concentration produced by unit skin-drug contact area ([1]; Two Patches, time point 32 hrs): 0.036 ng/ml/cm^2 | Mean Ketoprofen Plasma Concentration produced by unit skin-drug contact area ([1]; Two Patches, time point 36 hrs): 0.029 ng/ml/cm^2 | Mean Ketoprofen Plasma Concentration produced by unit skin-drug contact area ([1]; Two Patches, time point 42 hrs): 0.021 ng/ml/cm^2 | Mean Ketoprofen Plasma Concentration produced by unit skin-drug contact area ([1]; Two Patches, time point 48 hrs): 0.018 ng/ml/cm^2 | concentration at 2 h ([1]; 136 mg, Single Patch (136 mg, 172 cm^2, heated) above one knee, time point 2 hrs): 13.5 ng/mL | concentration at 4 h ([1]; 136 mg, Single Patch, time point 4 hrs): 62.9 ng/mL | concentration at 6 h ([1]; 136 mg, Single Patch, time point 6 hrs): 96.7 ng/mL | concentration at 8 h ([1]; 136 mg, Single Patch, time point 8 hrs): 116 ng/mL | concentration at 10 h ([1]; 136 mg, Single Patch, time point 10 hrs): 132 ng/mL | concentration at 12 h ([1]; 136 mg, Single Patch, time point 12 hrs): 121 ng/mL | concentration at 14 h ([1]; 136 mg, Single Patch, time point 14 hrs): 79.8 ng/mL | concentration at 16 h ([1]; 136 mg, Single Patch, time point 16 hrs): 48.5 ng/mL | concentration at 18 h ([1]; 136 mg, Single Patch, time point 18 hrs): 36.3 ng/mL | concentration at 20 h ([1]; 136 mg, Single Patch, time point 20 hrs): 27.6 ng/mL | concentration at 24 h ([1]; 136 mg, Single Patch, time point 24 hrs): 16.4 ng/mL | concentration at 28 h ([1]; 136 mg, Single Patch, time point 28 hrs): 10 ng/mL | concentration at 32 h ([1]; 136 mg, Single Patch, time point 32 hrs): 6.1 ng/mL | concentration at 36 h ([1]; 136 mg, Single Patch, time point 36 hrs): 4.9 ng/mL | concentration at 42 h ([1]; 136 mg, Single Patch, time point 42 hrs): 3.9 ng/mL | concentration at 48 h ([1]; 136 mg, Single Patch, time point 48 hrs): 3.2 ng/mL | concentration at 6 h ([1]; 272 mg, Two Patches Dose-Normalized to one patch, time point 6 hrs): 88.1 ng/mL | concentration at 8 h ([1]; 272 mg, Two Patches Dose-Normalized to one patch, time point 8 hrs): 108 ng/mL | concentration at 10 h ([1]; 272 mg, Two Patches Dose-Normalized to one patch, time point 10 hrs): 123 ng/mL | concentration at 12 h ([1]; 272 mg, Two Patches Dose-Normalized to one patch, time point 12 hrs): 114 ng/mL | concentration at 14 h ([1]; 272 mg, Two Patches Dose-Normalized to one patch, time point 14 hrs): 78.1 ng/mL | concentration at 16 h ([1]; 272 mg, Two Patches Dose-Normalized to one patch, time point 16 hrs): 48.2 ng/mL | concentration at 18 h ([1]; 272 mg, Two Patches Dose-Normalized to one patch, time point 18 hrs): 34.2 ng/mL | concentration at 20 h ([1]; 272 mg, Two Patches Dose-Normalized to one patch, time point 20 hrs): 26.1 ng/mL | concentration at 24 h ([1]; 272 mg, Two Patches Dose-Normalized to one patch, time point 24 hrs): 15.5 ng/mL | concentration at 32 h ([1]; 272 mg, Two Patches Dose-Normalized to one patch, time point 32 hrs): 6.2 ng/mL | concentration at 36 h ([1]; 272 mg, Two Patches Dose-Normalized to one patch, time point 36 hrs): 5 ng/mL | concentration at 42 h ([1]; 272 mg, Two Patches Dose-Normalized to one patch, time point 42 hrs): 3.6 ng/mL | concentration at 2 h ([1]; 272 mg, Two Patches simultaneously, one above each knee, time point 2 hrs): 7.8 ng/mL | concentration at 4 h ([1]; 272 mg, Two Patches, time point 4 hrs): 89.2 ng/mL | concentration at 6 h ([1]; 272 mg, Two Patches, time point 6 hrs): 176 ng/mL | concentration at 8 h ([1]; 272 mg, Two Patches, time point 8 hrs): 217 ng/mL | concentration at 10 h ([1]; 272 mg, Two Patches, time point 10 hrs): 246 ng/mL | concentration at 12 h ([1]; 272 mg, Two Patches, time point 12 hrs): 229 ng/mL | concentration at 14 h ([1]; 272 mg, Two Patches, time point 14 hrs): 156 ng/mL | concentration at 16 h ([1]; 272 mg, Two Patches, time point 16 hrs): 96.3 ng/mL | concentration at 18 h ([1]; 272 mg, Two Patches, time point 18 hrs): 68.4 ng/mL | concentration at 20 h ([1]; 272 mg, Two Patches, time point 20 hrs): 52.2 ng/mL | concentration at 24 h ([1]; 272 mg, Two Patches, time point 24 hrs): 31 ng/mL | concentration at 28 h ([1]; 272 mg, Two Patches, time point 28 hrs): 18.6 ng/mL | concentration at 32 h ([1]; 272 mg, Two Patches, time point 32 hrs): 12.3 ng/mL | concentration at 36 h ([1]; 272 mg, Two Patches, time point 36 hrs): 9.9 ng/mL | concentration at 42 h ([1]; 272 mg, Two Patches, time point 42 hrs): 7.2 ng/mL | concentration at 48 h ([1]; 272 mg, Two Patches, time point 48 hrs): 6.2 ng/mL
SMILES: CC(C(=O)O)c1cccc(C(=O)c2ccccc2)c1 (centres unmarked) [Ketoprofen]

Skin permeability compared with ketoprofen [2]: less skin permeable
SMILES: O=C(O)Cc1ccccc1Nc1c(Cl)cccc1Cl [diclofenac]
